Tests used:
WT and AC5KO mice [1] = test: Locomotor activity test with dopaminergic agonists; format: in vivo, mouse; settings: subcutaneous, SKF38393 25 or 50 mg/kg, cabergoline 0.2 or 1.0 mg/kg
Method: FIG. 27. Motor dysfunction in ACD-^−/− mice. Rotarod test (A)—Each mouse was placed on a 3.5-cm diameter rod covered with rubber to evaluate rotarod performance (14). Mice were left for 1 minute on the rod for habituation. The rod rotated gradually increasing from 4 to 40 rpm over the course of 5 min and the time that mice could stay on an accelerating rotarod without failing was recorded. Five trials were conducted for each individual 10-25 min apart within the dark phase of the light/dark cycle. Mice that stayed on the rotarod for >300 sec were considered complete responders, and their latencies were recorded as 300 sec. *p<0.05, relative to ^+/+; ^+/−, n=17-20. […] Locomotor activity (B) was assessed using an activity monitor equipped with photocell beams (Columbus Instruments, Ohio, USA). The number of photobeam interruptions in each perpendicular axis was recorded and totaled for 5 min. The behavior of the mice was recorded simultaneously by video camera for later analysis, and their rearing actions were counted (C). *p<0.05, relative to ^+/+, n=15-20. […] The time until it turned completely downward (open bars, Tturn) and the time until it climbed down to the floor (closed bars, TLA) were measured *p<0.01, relative to ^+/+, n=14-17. […]
FIG. 32. […] In rotarod test, the best performance out of five trials in each individual was evaluated. […]

WT and AC5KO mice [2] = test: Rotarod test with dopaminergic agonists; format: in vivo, mouse; settings: subcutaneous, 0.2 or 1.0 mg/kg
Method: (§1) FIG. 27. Motor dysfunction in ACD-^−/− mice. Rotarod test (A)—Each mouse was placed on a 3.5-cm diameter rod covered with rubber to evaluate rotarod performance (14). Mice were left for 1 minute on the rod for habituation. The rod rotated gradually increasing from 4 to 40 rpm over the course of 5 min and the time that mice could stay on an accelerating rotarod without failing was recorded. Five trials were conducted for each individual 10-25 min apart within the dark phase of the light/dark cycle. Mice that stayed on the rotarod for >300 sec were considered complete responders, and their latencies were recorded as 300 sec. *p<0.05, relative to ^+/+; ^+/−, n=17-20. Activity tests (B and C)—The tests were performed as previously described (14, 15). Mice were put in the darkened testing room 60 minutes for habituation before testing. Locomotor activity (B) was assessed using an activity monitor equipped with photocell beams (Columbus Instruments, Ohio, USA). The number of photobeam interruptions in each perpendicular axis was recorded and totaled for 5 min. The behavior of the mice was recorded simultaneously by video camera for later analysis, and their rearing actions were counted (C). *p<0.05, relative to ^+/+, n=15-20. Pole test (D)—In order to evaluate bradykinesia, pole test was performed (16). In brief, mice were placed head upward on the top of a rough-surfaced pole (8 mm in diameter and 50 cm in height) that was wrapped with gauze to prevent slipping. The time until it turned completely downward (open bars, Tturn) and the time until it climbed down to the floor (closed bars, TLA) were measured *p<0.01, relative to ^+/+, n=14-17. Means±SEM are shown. Homozygous to (ACD^−/−) (closed circles, ^−/−), heterozygous (shaded circles, ^+/−), and wild type (WT) (open circles, ^+/+).
(§2) FIG. 32. Effect of dopaminergic agonists on motor functions Effects of SKF38393 on locomotor activity (A), rotarod test (B), and pole test (C) were compared. […] In rotarod test, the best performance out of five trials in each individual was evaluated. […]

WT and AC5KO mice [3] = test: Pole test with dopaminergic agonists; format: in vivo, mouse
Method: as §1, §2

L-type Ca2+ channels = test: Whole-cell patch-clamp of Ca2+ channel currents (ICa) in myocytes; format: cell-based, mouse
Text: FIG. 22: A, Effects of ISO (1 μmol/L) on ICa in WT and AC5KO myoctyes. Traces show currents recorded from a holding potential of −50 mV to indicated potentials in control before (a) and after application of ISO (1 μmol/L) (b). Peak ICa were normalized to the cell capacitance to give current densities (pA/pF) and were plotted as a function of voltage (c). B, Concentration-dependent effects of ISO on ICa measured in myocytes dialyzed with EGTA or BAPTA, and on Ba^2+ currents with EGTA. The relative increase of peak current amplitude was plotted against ISO concentration. The solid lines were best fit to one-to-one binding model. Data are from 8-30 myocytes.
Whole-cell currents were recorded using patch-clamp techniques. Cell capacitance was measured using voltage ramps of 0.8 V/s from a holding potential of −50 mV. All experiments were performed at room temperature. […] The pipette solution contained (mmol/L): Cs-aspartate, 100; CsCl, 20; MgCl2, 1; MgATP, 2; GTP, 0.5; EGTA, 5 or 1,2-bis (2-aminophenoxy)ethane-N,N,N′,N′-tetraacetic acid (BAPTA), 10 and HEPES, 5 (Ph 7.3). […] Nifedipine (10 μmol/L) was added to block L-type Ca^2+ channel currents. The patch pipette solution contained (mmol/L): potassium aspartate, 110; KCl, 20; MgCl2, 2; ATP, 2; GTP, 0.5; EGTA, 5; HEPES, 5 (pH 7.3).
Ca^2+ influx through L-type Ca^2+ channels is essential for cardiac contractility, thus basic Ca^2+ channel properties were characterized. Peak inward ICa amplitude (with 5 mmol/L EGTA in the pipette solution), normalized relative to cell capacitance (ICa density), was similar in myocytes isolated from AC5KO (7.1±0.3 pA/pF, n=69) and WT (6.7±0.3 pA/pF, n=55). […] In these experiments myocytes were dialyzed with BAPTA, and peak ICa amplitude, as the function of voltage (I-V relationships) before and after exposure to ISO, was determined. In both groups, ISO increased the current amplitude at all test potentials and also shifted the I-V relationships toward more negative potentials.

cardiac AC = test: AC assay in heart membrane preparations; format: biochemical, mouse; settings: 100 μmol/L ISO + 100 μmol/L GTP
Method: FIG. 17: Adrenergic, muscarinic, and Ca^2+-mediated regulation of cardiac AC activity. A, AC activity in vitro. The steady state AC activity was determined as the maximal cAMP production over 15 min. Stimulation was performed at the level of the β-AR (ISO), G-protein (GTPγS) and AC catalytic unit with forskolin (Fsk). *P<0.01, n=5. B, Effects of carbachol on AC activity. AC was preactivated by ISO. AC activity was then determined in the absence and presence of carbachol. Carbachol at 10 μmol/L produced its maximal inhibitory effect. *P<0.01, n−5. C, To investigate the inhibition of AC activity by Ca^2+, we examined cAMP production in membranes from the hearts of WT and AC5KO at increasing Ca^2+ concentrations in the presence of ISO. ISO-stimulated AC activity was inhibited more in WT than in AC5KO. […].
Hearts were dissected from the mice and membrane preparations were prepared as described previously. Protein concentration was measured by the method of Bradford using bovine serum albumin as a standard. AC activity was measured as described previously. AC activity was linear within the incubation time up to 30 min. In order to harvest hearts for tissue cAMP content measurements, mice were allowed to acclimate to the surroundings in the laboratory for an hour before sacrifice. Freshly isolated hearts were briefly immersed in liquid nitrogen. The tissue was homogenized in ice-cold 6% percholic acid, and cAMP was extracted as described before. The concentration of cAMP was determined with an RIA kit (PerkinElmer Life Sciences, Boston, Mass., USA).
Hearts were dissected from the mice, and membrane preparations were prepared as described previously. Protein concentration was measured by the Bradford method using bovine serum albumin as a standard. AC activity was measured as described previously. AC activity was linear within the incubation time up to 30 min. For the study of Ca 2+ inhibition, the membranes were treated first with EGTA to extract the endogenous Ca 2+ prior to the assay. Free Ca 2+ concentrations were obtained with the use of 200 μmol/L EGTA buffers as described previously. The experiments with Ca 2+ inhibition were conducted in the presence of 100 μmol/L isoproterenol (ISO)+100 μmol/L GTP.

[4] = tested on: WT, hetero and AC5KO mice; test: Rotor-rod test after db-cAMP injection; format: in vivo, mouse
Method: FIG. 9: Effects of db-cAMP on rotor-rod test. Tests were performed before (pre), 30 minutes after (post), and 48 hours after (next) the injection of db-cAMP to WT, hetero and AC5KO (n=4-7).
The locomotor activity of intact animals, AC5KO versus WT was examined (FIG. 5). At first glance the animals appeared normal, being neither catatonic nor rigid. […] The mice were studied using a rotor rod test in which mice were placed on a rototating rod and had to make continuous adjustment in balance in order to remain upright. The time that the mice spent on the accelerating rotor rod without falling was measured. The rod increased from 3 rpm to 30 rpm during each 5 min. trial. […] There was no significant difference between WT and Hetero at the 1st through 4th trial. At the 5th trial, there was a small but signiifcant decrease in their performance in Hetero.
Motor function may be improved by the administration of cAMP analogues.

C=CCN1C[C@H](C(=O)N(CCCN(C)C)C(=O)NCC)C[C@@H]2c3cccc4[nH]cc(c34)C[C@H]21 [Cabergoline]
locomotor activity (WT and AC5KO mice [1]): no significant effect on locomotor activity in both WT and AC5KO | rotarod performance (WT and AC5KO mice [2]; AC5KO): improved rotarod performance selectively in AC5KO | rotarod performance (WT and AC5KO mice [2]; WT): essentially had no effect on WT | pole test performance at the lower dose (WT and AC5KO mice [3]; 0.2 mg/kg): dramatic improvement | pole test performance (WT and AC5KO mice [3]; subcutaneous): improved pole test performance

CC(C)NCC(O)c1ccc(O)c(O)c1 (stereo not shown) [ISO, isoproterenol]
maximum response of the Ca2+ channel (relative increase of peak current) (L-type Ca2+ channels; AC5KO myocytes, all three conditions (EGTA, BAPTA, Ba2+)): ~1.5 fold | maximum response of the Ca2+ channel (relative increase of peak current) (L-type Ca2+ channels; WT myocytes dialyzed with EGTA): ~1.7 fold | maximum response of the Ca2+ channel (relative increase of peak current) (L-type Ca2+ channels; WT myocytes, BAPTA or Ba2+): ~2.4 fold | increase of AC activity (cardiac AC; AC5KO heart membranes): 64±4 pmol/15 min/mg | increase of AC activity (cardiac AC; WT heart membranes): 78±6 pmol/15 min/mg

CCCC(=O)Nc1ncnc2c1ncn2[C@@H]1O[C@@H]2COP(=O)(O)O[C@H]2[C@H]1OC(=O)CCC [db-cAMP]
improvement of time on the rod ([4]; AC5KO, 30 minutes after injection): two-fold increase | rotor rod performance 48 hours after injection ([4]; AC5KO, 48 hours after injection): dropped to the basal level | improvement of time on the rod, increase ([4]; hetero and WT, 30 minutes after injection): 25-30%
